The structures appear in SMILES notation.

The assay deals with Cyclin-dependent kinase 2 (Homo sapiens, UniProt P24941). Description: Inhibition of CDK2 in human OVCAR-3 cells assessed as inhibition of retinoblastoma protein phosphorylation at S807/811 residues measured after 24 hrs by TR-FRET assay. Format: cell-based.
Regarding `O=C1CCC(N2C(=O)c3cc(F)c(N4CC5(CN(Cc6cccc(S(=O)(=O)N7CCC(Nc8ncc(C(F)(F)F)c(-c9cnn(CC(F)(F)F)c9)n8)CC7)c6)C5)C4)cc3C2=O)C(=O)N1` (stereo not drawn), the IC50 (as a rule, the concentration that gives 50% inhibition) was less than 100 nM.

With `O=C1CCC(N2Cc3ccc(N4CCC5(CCN(Cc6cccc(S(=O)(=O)N7CCC(Nc8ncc(C(F)(F)F)c(-c9cnn(CC(F)(F)F)c9)n8)CC7)c6)CC5)CC4)cc3C2=O)C(=O)N1` (stereo not drawn), the IC50 is less than 100 nM.

Consider `Cn1nc(N2CCC(=O)NC2=O)c2cc(C3CCN(Cc4cccc(S(=O)(=O)N5CCC(Nc6ncc(C(F)(F)F)c(-c7cnn(CC(F)(F)F)c7)n6)CC5)c4)CC3)ccc21`, for which the IC50 is less than 100 nM.

Regarding `Cn1nc(N2CCC(=O)NC2=O)c2ccc(C3CCN(CC4CCN(S(=O)(=O)N5CCC(Nc6ncc(C(F)(F)F)c(-c7cnn(CC(F)(F)F)c7)n6)CC5)CC4)CC3)cc21`, the IC50 is less than 100 nM.

As for `O=C1CCC(N2C(=O)c3cc(F)c(N4CCN(Cc5cccc(S(=O)(=O)N6CCC(Nc7ncc(Cl)c(-c8cnn(CC(F)(F)F)c8)n7)CC6)c5)CC4)cc3C2=O)C(=O)N1` (stereo not drawn), the IC50 was less than 100 nM.

With `O=C1CCC(N2Cc3cc(C4CN(Cc5cccc(S(=O)(=O)N6CCC(Nc7ncc(C(F)(F)F)c(-c8cnn(CC(F)(F)F)c8)n7)CC6)c5)C4)ccc3C2=O)C(=O)N1` (stereo not drawn), the IC50 is less than 100 nM.

With `Cn1nc(N2CCC(=O)NC2=O)c2ccc(C3CCN(Cc4cccc(S(=O)(=O)N5CCC(Nc6ncc(C(F)(F)F)c(-c7cnn(-c8ccccc8F)c7)n6)CC5)c4)CC3)cc21`, the IC50 was not above 100 nM.

On to `O=C1CCC(c2ccc(N3CCN(Cc4cccc(S(=O)(=O)N5CCC(Nc6ncc(C(F)(F)F)c(-c7cnn(CC(F)(F)F)c7)n6)CC5)c4)CC3)cc2)C(=O)N1` (stereo not drawn), for which the IC50 is less than 100 nM.
